Measurements taken from PubChem BioAssay (NCI).
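Here, GI50 denotes the concentration required for 50% inhibition of growth. At the TGI there is no net growth.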

Columns and labels:
Assay in all cases: growth of human tumour cells (NCI), 384-well format
[1] = system: HOP-92 NSCLC
[2] = system: HCT-116 colon
[3] = system: NCI-H522 lung
[4] = system: UACC-257 melanoma
[5] = system: KM12 colon
[6] = system: RPMI-8226 leukemia
[7] = system: IGROV1 ovarian
[8] = system: DU-145 prostate
[9] = system: OVCAR-5 ovarian
[10] = system: A498 renal
[11] = system: TK-10 renal
[12] = system: SK-MEL-28 melanoma
[13] = system: MDA-MB-231 breast

Compound | GI50 [1] | TGI [1] | GI50 [2] | TGI [2] | GI50 [3] | TGI [3] | GI50 [4] | TGI [4] | GI50 [5] | TGI [5] | GI50 [6] | TGI [6] | GI50 [7] | TGI [7] | GI50 [8] | TGI [8] | GI50 [9] | TGI [9] | GI50 [10] | TGI [10] | also measured
[2H]c1nc(C)nc([2H])c1-c1cc(NC[C@@H](C)c2cccc3c(C(=O)NC)ccnc23)ncn1 | > 100 µM | > 100 µM | > 100 µM | > 100 µM | > 100 µM | > 100 µM | > 100 µM | > 100 µM | > 100 µM | > 100 µM | 70.2 µM | > 100 µM | > 100 µM | > 100 µM | > 100 µM | > 100 µM | > 100 µM | > 100 µM | > 100 µM | > 100 µM | GI50 [11]: > 100 µM; TGI [11]: > 100 µM; GI50 [12]: > 100 µM; TGI [12]: > 100 µM; GI50 [13]: > 100 µM; TGI [13]: > 100 µM
CC(C)N(CCCNC(=O)Nc1ccc(C(C)(C)C)cc1)C[C@H]1O[C@@H](n2ccc3c(N)ncnc32)[C@H](O)[C@@H]1O | > 100 µM | > 100 µM | > 100 µM | > 100 µM | > 100 µM | > 100 µM | 41.5 µM | > 95.1 µM | > 100 µM | > 100 µM | 18.9 µM | > 100 µM | > 72.4 µM | > 100 µM | > 100 µM | > 100 µM | > 100 µM | > 100 µM | > 100 µM | > 100 µM | GI50 [11]: > 100 µM; TGI [11]: > 100 µM; GI50 [12]: > 100 µM; TGI [12]: > 100 µM; GI50 [13]: > 100 µM; TGI [13]: > 100 µM
